Measured values from patent US20080318938A1, “METHODS FOR TREATING ABERRANT CELL PROLIFERATION DISORDERS” (priority 2007, published 2008).

How the values were obtained:
Experiment in all cases: Receptor functional assay
Assay type in all cases: biochemical
CCK1/CCKA = molecular target: T1, CCK1/CCKA (Homo sapiens, UniProt P32238)
T1 sequence (P32238 1-428): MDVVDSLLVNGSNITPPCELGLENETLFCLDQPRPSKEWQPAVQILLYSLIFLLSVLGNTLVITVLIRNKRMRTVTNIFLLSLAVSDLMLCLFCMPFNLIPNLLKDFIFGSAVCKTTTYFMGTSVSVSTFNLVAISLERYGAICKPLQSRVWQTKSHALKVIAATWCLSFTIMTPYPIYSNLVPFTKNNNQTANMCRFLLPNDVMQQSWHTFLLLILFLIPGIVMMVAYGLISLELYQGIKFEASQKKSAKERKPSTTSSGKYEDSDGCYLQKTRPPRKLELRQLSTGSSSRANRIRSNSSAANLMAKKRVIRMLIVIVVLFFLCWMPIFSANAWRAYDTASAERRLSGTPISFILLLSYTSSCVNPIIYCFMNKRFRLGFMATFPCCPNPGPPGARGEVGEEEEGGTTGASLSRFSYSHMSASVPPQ
Method: (§1) The binding IC50, functional effect, and functional EC50 of TA1-1B on exemplary receptors was determined.

CCK2/CCKB = molecular target: T2, CCK2/CCKB (Homo sapiens, UniProt P32239)
T2 sequence (P32239 1-447): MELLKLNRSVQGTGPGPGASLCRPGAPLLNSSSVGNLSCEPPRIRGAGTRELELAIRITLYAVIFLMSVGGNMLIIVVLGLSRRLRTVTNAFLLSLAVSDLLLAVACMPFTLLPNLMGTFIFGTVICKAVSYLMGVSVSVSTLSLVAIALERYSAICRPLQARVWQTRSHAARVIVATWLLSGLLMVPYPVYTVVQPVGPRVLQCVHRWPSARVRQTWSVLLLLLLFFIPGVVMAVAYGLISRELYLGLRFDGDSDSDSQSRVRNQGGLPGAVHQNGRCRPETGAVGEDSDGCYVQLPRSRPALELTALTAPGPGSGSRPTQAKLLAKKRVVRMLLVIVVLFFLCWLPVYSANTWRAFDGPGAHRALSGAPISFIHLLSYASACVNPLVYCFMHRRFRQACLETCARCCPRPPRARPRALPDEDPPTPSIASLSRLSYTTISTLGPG
Method: as §1

SST1 = SST1 (Homo sapiens, UniProt P30872)
Sequence of SST1 (P30872 whole entry, species assumed): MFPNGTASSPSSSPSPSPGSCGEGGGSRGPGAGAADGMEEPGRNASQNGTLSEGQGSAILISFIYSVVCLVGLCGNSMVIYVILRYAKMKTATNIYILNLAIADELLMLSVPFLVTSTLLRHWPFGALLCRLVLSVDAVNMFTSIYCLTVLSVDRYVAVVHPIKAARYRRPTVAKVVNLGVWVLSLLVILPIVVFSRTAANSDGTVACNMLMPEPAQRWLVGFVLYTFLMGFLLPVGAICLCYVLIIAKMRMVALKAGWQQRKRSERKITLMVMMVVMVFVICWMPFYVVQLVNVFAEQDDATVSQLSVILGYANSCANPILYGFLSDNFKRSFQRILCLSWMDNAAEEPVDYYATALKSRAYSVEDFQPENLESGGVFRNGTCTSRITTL
Method: as §1

SST4 = SST4 (Homo sapiens, UniProt P31391)
Sequence of SST4 (P31391 whole entry, species assumed): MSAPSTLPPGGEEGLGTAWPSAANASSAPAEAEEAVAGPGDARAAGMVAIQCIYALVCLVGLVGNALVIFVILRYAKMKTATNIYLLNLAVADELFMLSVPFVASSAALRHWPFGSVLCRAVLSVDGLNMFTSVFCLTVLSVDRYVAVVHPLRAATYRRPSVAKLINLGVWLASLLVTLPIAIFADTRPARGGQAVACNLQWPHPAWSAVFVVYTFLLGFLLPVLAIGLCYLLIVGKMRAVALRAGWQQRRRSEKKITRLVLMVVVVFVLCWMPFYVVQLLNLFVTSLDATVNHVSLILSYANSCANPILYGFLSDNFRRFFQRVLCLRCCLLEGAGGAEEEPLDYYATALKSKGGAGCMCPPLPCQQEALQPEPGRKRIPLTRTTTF
Method: as §1

SST5 = SST5 (Homo sapiens, UniProt P35346)
Sequence of SST5 (P35346 whole entry, species assumed): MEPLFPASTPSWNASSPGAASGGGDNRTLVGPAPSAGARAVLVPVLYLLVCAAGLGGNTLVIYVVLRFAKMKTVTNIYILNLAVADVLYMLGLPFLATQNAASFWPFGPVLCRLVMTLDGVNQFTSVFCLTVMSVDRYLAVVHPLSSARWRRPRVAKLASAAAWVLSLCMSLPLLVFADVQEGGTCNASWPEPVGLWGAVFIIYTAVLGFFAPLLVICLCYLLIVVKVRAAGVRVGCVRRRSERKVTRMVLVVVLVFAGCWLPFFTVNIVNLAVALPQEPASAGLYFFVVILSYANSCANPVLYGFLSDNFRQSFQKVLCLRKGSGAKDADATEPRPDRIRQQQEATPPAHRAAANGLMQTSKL
Method: as §1

Compound: CN1CCC[C@H]1CCNC(=O)c1cn2c3c(c(N4CCC(c5cnccn5)C4)c(F)cc3c1=O)Oc1cc3ccccc3cc1-2 (stereo partly drawn) [TA1-1B]
- EC50 (CCK1/CCKA; antagonist): 1.6 µM
- Kb (CCK1/CCKA; antagonist): 0.34 µM
- Functional Effect (CCK1/CCKA; response noted at 1 μM): Antagonist
- EC50 (CCK2/CCKB; antagonist): 9 µM
- Kb (CCK2/CCKB; antagonist): 0.4 µM
- Functional Effect (CCK2/CCKB; response noted at 10 μM): Antagonist
- EC50 (SST1; agonist): 4.3 µM
- Functional Effect (SST1; response noted at 10 μM): Agonist
- EC50 (SST4; agonist): 9.9 µM
- Functional Effect (SST4; response noted at 10 μM): Agonist
- EC50 (SST5; agonist): 4.7 µM
- Functional Effect (SST5; response noted at 10 μM): Agonist
